pIC50: −log10 of the molar value.
Tested on: IFN-a/Jak1Tyk2
Assay: Co-stimulation assay in lysed whole blood: IFNa (JAK1/TYK2) stimulated STAT1 phosphorylation
Format: cell-based
Settings: lysed human whole blood, IFNa 100 ng/mL (co-stimulated with GM-CSF 10 ng/mL), pSTAT1 by flow cytometry
Procedure: Example 4: Co-Stimulation Assay in Lysed Whole Blood; JAK2: GM-CSF Stimulated STATS Phosphorylation and JAK1/TYK2 Stimulated STAT1 Phosphorylation Assay
Human Blood Lysis Using Abcam's RBC Lysis Buffer
Dilute RBC lysis buffer to 1× in distilled water. Add 2 mL blood to 38 mL of 1×RBC-lysis buffer. Incubate for 15 mins at RT, in dark. Spin at 300 g, 5 mins, to collect the pellet. Re-lyse if necessary. Re-suspend pellet in 5 mL of cRPMI.
Compound and Cytokine Treatment
Aliquot 80 μL of lysed human blood in to wells of 96 deep-well plate. Add 10 μl of (10× conc.) of different concentrations of compounds to all wells except controls (unstained and unstimulated) and mix it with the help of 100 uL multichannel. Add 10 uL of RPMI media in controls. For dilution of compounds and dilution range please refer Appendix. Incubate on water bath or CO2 incubator for 1 hour at 37° C. Add 10 μL of (10× conc.) of cytokine mix (GM-CSF and IFNa) (final conc. 10 ng/mL of GM-CSF and 100 ng/mL of IFNa) to each well except unstimulated and unstained controls and incubate further for 20 minutes on water bath at 37° C.
Add 900 μL of prewarmed 1× Fix/Lyse solution (Appendix) and mix it properly using 1000 μl multichannel, incubate further on water bath at 37° C. for 10 minutes (which includes time of addition). Centrifuge at 800× g for 5 minutes at 40° C.; remove 900 uL of supernatant and add 900 μL of 1×PBS. Centrifuge at 800× g for 5 minutes at 40° C., remove 900 μL of supernatant. Wash one more time with 900 μL of PBS (optional) and resuspend pellets in 100 uL of PBS.
Disrupt the pellet by gentle tapping and resuspend in 1000 μL of BD Phosflow Perm Buffer III and incubate plate on ice for 30 minutes. Centrifuge plate at 800× g for 5 minutes at 40° C. Wash two more times with 1000 μL of BD Pharmingen Stain Buffer.
Disrupt the pellet by gentle tapping. Resuspend pellets in 100 uL of Stain Buffer and add 5 μL of pSTAT5_AF488 Ab and 5 uL of pSTAT1_PE in all wells except unstained control and mix properly using 200 μl multichannel, incubate overnight at […]. Add 900 μL of wash buffer and centrifuge at 1800 rpm for 3 minutes at […]. Wash one more time with 1000 μL of BD Pharmingen Stain Buffer. Finally resuspend the pellet in 300 uL of BD Pharmingen Stain Buffer. Transfer the cells to 96-well v-bottom plate and acquire the cells in Beckman Coulter CytExpert. Acquiring cells in Flow Cytometer: Keep the threshold value to 250 and cell concentration should not exceed 100-500 cells/μL. Acquire at least 5,000-10,000 cells.
RPMI 1640 Complete Medium: RPMI 1640 media+10% FBS.
Cytokine dilution: 1) GM-CSF Stock at 100 ug/mL. Prepare an intermediate dilution of 1 ug/mL by adding 2 uL of stock into 198 uL of cRPMI. Further dilute to 100 ng/mL by adding 100 uL of the intermediate stock to 900 uL of cRPMI. 2) IFNa Stock at 200 ug/mL. Dilute IFNa stock 1:200 by adding 5 uL of stock into the 1000 uL of 100 ng/mL GM-CSF working stock as above to give a combined working stock of 1000 ng/mL of IFNa and 100 ng/mL GM-CSF (lox). Keep it on ice until used.
Lyse/Fix buffer preparation: Dilute 5× Lyse/Fix buffer to 1× using MQ water and keep at 37° C. until used.
BD Phosflow perm buffer III: Keep on ice/fridge.

pIC50	SMILES
≥ 6.30	[2H]C([2H])([2H])Nc1cc2nc3c(cnn13)C(=O)NCCOc1cccc(c1)N2 [Compound 14, (1^3E,1^4E)-1^7-((methyl-d3)amino)-4-oxa-2,7-diaza-1(5,3)-pyrazolo[1,5-a]pyrimidina-3(1,3)-benzenacyclooctaphan-8-one]
≥ 6.30	CNc1cc2nc3c(cnn13)C(=O)NCCOc1cccc(c1)N2 [Compound 7, (1^3E,1^4E)-1^7-(methylamino)-4-oxa-2,7-diaza-1(5,3)-pyrazolo[1,5-a]pyrimidina-3(1,3)-benzenacyclooctaphan-8-one]
6.00 to 7.00	CNc1cc2nc3c(cnn13)C(=O)NCCOc1ccc(F)c(c1)N2 [Compound 22, (1^3E,1^4E)-3^6-fluoro-1^7-(methylamino)-4-oxa-2,7-diaza-1(5,3)-pyrazolo[1,5-a]pyrimidina-3(1,3)-benzenacyclooctaphan-8-one]
≥ 6.30	CNc1cc2nc3c(cnn13)C(=O)NCCc1cccc(c1)N2 [Compound 16, (1^3E,1^4E)-1^7-(methylamino)-2,6-diaza-1(5,3)-pyrazolo[1,5-a]pyrimidina-3(1,3)-benzenacycloheptaphan-7-one]

Second part, the molecule before the results:

SMILES	pIC50
CNc1cc2nc3c(cnn13)C(=O)NCCOc1cccc(n1)N2 [Compound 17, (1^3E,1^4E)-1^7-(methylamino)-4-oxa-2,7-diaza-1(5,3)-pyrazolo[1,5-a]pyrimidina-3(2,6)-pyridinacyclooctaphan-8-one]	≥ 6.30
CNc1cc2nc3c(cnn13)C(=O)NCCOc1cc(C)cc(c1)N2 [Compound 26, (1^3E,1^4E)-3^5-methyl-1^7-(methylamino)-4-oxa-2,7-diaza-1(5,3)-pyrazolo[1,5-a]pyrimidina-3(1,3)-benzenacyclooctaphan-8-one]	6.00 to 7.00
CNc1cc2nc3c(cnn13)C(=O)NCCOc1ccccc1N2 [Compound 20, (1^3E,1^4E)-1^7-(methylamino)-4-oxa-2,7-diaza-1(5,3)-pyrazolo[1,5-a]pyrimidina-3(1,2)-benzenacyclooctaphan-8-one]	6.00 to 7.00
CNc1cc2nn3c(cnc13)C(=O)NCCOc1cccc(c1)N2 [Compound 12, (E)-1^8-(methylamino)-4-oxa-2,7-diaza-1(6,3)-imidazo[1,2-b]pyridazina-3(1,3)-benzenacyclooctaphan-8-one]	6.00 to 7.00
CNc1cc2nc3c(cnn13)C(=O)NCCOc1ccc(F)cc1N2 [Compound 32, (1^3E,1^4E)-3^5-fluoro-1^7-(methylamino)-4-oxa-2,7-diaza-1(5,3)-pyrazolo[1,5-a]pyrimidina-3(1,2)-benzenacyclooctaphan-8-one]	6.00 to 7.00
CNc1cc2nc3c(cnn13)C(=O)NCCOc1cc(ccc1F)N2 [Compound 21, (1^3E,1^4E)-3^4-fluoro-1^7-(methylamino)-4-oxa-2,7-diaza-1(5,3)-pyrazolo[1,5-a]pyrimidina-3(1,3)-benzenacyclooctaphan-8-one]	6.00 to 7.00
CNc1cc2nc3c(cnn13)C(=O)NCCn1cc(cn1)N2 [Compound 47, (1^3E,1^4E,3^4E)-1^7-(methylamino)-31H-2,6-diaza-1(5,3)-pyrazolo[1,5-a]pyrimidina-3(4,1)-pyrazolacycloheptaphan-7-one]	5.00 to 6.00

— US11780842B2, “TYK2 pseudokinase ligands” (Ventyx Biosciences, Inc., priority 2019, dated 2023)
